ChEMBL document CHEMBL5518181, “Studies of antibacterial activity (in vitro and in vivo) and mode of action for des-acyl tridecaptins (DATs)” (Eur J Med Chem, 2024)
≈ marks a conversion by molar mass, not a printed value.

Key:
Escherichia coli = experiment: Antibacterial activity against wild-type Escherichia coli ATCC 25922 assessed as inhibition of bacterial growth incubated for 18 hrs; format: functional; settings: read-out: MIC100
Klebsiella pneumoniae = experiment: Antibacterial activity against wild-type Klebsiella pneumoniae ATCC 13883 assessed as inhibition of bacterial growth incubated for 18 hrs; format: functional; settings: read-out: MIC100
[1] = Hemolytic activity in human red blood cells at 400 ug/ml incubated for 45 mins by spectrophotometric analysis relative to control; format: toxicity, cell-based, Erythrocyte; settings: red blood cells (erythrocytes), at 400 µg/mL, read-out: Activity
[2] = Cytotoxicity against human HepG2 cells incubated for 40 hrs by celltiter-glo luminescent cell viability assay; format: toxicity, cell-based

Structure (SMILES)	MIC (Escherichia coli) [µg/mL]	MIC (Klebsiella pneumoniae) [µg/mL]	hemolysis at 0.75 h, 400 ug/ml [1] [%]	IC50 at 40 h [2] [µg/mL]
CC[C@H](C)[C@@H](NC(=O)[C@@H](NC(=O)[C@H](CC(=O)O)NC(=O)[C@H](Cc1ccccc1)NC(=O)[C@@H](CCN)NC(=O)[C@H](CCN)NC(=O)[C@H](CO)NC(=O)[C@@H](Cc1c[nH]c2ccccc12)NC(=O)[C@@H](CO)NC(=O)CNC(=O)[C@@H](CCN)NC(=O)[C@H](N)C(C)C)C(C)C)C(=O)N[C@@H](C)C(=O)O	64 (≈ 46.4 µM)	64 (≈ 46.4 µM)	0	> 170
CC[C@H](C)[C@@H](NC(=O)[C@@H](NC(=O)[C@H](CCC(=O)O)NC(=O)[C@H](Cc1ccccc1)NC(=O)[C@@H](CCN)NC(=O)[C@H](CCN)NC(=O)[C@H](CO)NC(=O)[C@@H](Cc1c[nH]c2ccccc12)NC(=O)[C@@H](CO)NC(=O)[C@H](CCCCN)NC(=O)[C@@H](CCN)NC(=O)[C@H](NC(=O)[C@H](C)N)C(C)C)C(C)C)C(=O)N[C@@H](C)C(=O)O	16 (≈ 10.4 µM)	32 (≈ 20.8 µM)	0.5	> 170
CC[C@H](C)[C@@H](NC(=O)[C@@H](NC(=O)[C@H](CCC(=O)O)NC(=O)[C@H](Cc1ccccc1)NC(=O)[C@@H](CCN)NC(=O)[C@H](CN)NC(=O)[C@H](CO)NC(=O)[C@@H](Cc1c[nH]c2ccccc12)NC(=O)[C@@H](CO)NC(=O)CNC(=O)[C@@H](CCN)NC(=O)[C@H](NC(=O)[C@H](C)N)C(C)C)C(C)C)C(=O)N[C@@H](C)C(=O)O	> 64	> 64	0	> 170
CC[C@H](C)[C@@H](NC(=O)[C@H](C)NC(=O)[C@H](CCC(=O)O)NC(=O)[C@H](Cc1ccccc1)NC(=O)[C@@H](CCN)NC(=O)[C@H](CCN)NC(=O)[C@H](CO)NC(=O)[C@@H](Cc1c[nH]c2ccccc12)NC(=O)[C@@H](CO)NC(=O)CNC(=O)[C@@H](CCN)NC(=O)[C@H](N)C(C)C)C(=O)N[C@@H](C)C(=O)O	> 64	64 (≈ 46.8 µM)	0.8	58 (≈ 42.4 µM)
CC[C@H](C)[C@@H](NC(=O)[C@@H](NC(=O)[C@H](CCC(=O)O)NC(=O)[C@H](Cc1ccccc1)NC(=O)[C@@H](CCN)NC(=O)[C@H](CCN)NC(=O)[C@H](CO)NC(=O)[C@@H](Cc1c[nH]c2ccccc12)NC(=O)[C@@H](CO)NC(=O)CNC(=O)[C@@H](CCN)NC(=O)[C@H](NC(=O)[C@H](C)NC)C(C)C)C(C)C)C(=O)N[C@@H](C)C(=O)O	8 (≈ 5.41 µM)	8 (≈ 5.41 µM)	5.3	> 70
CC[C@H](C)[C@@H](NC(=O)[C@@H](NC(=O)[C@H](CCC(=O)O)NC(=O)[C@H](Cc1ccccc1)NC(=O)[C@@H](CCN)NC(=O)[C@H](CCN)NC(=O)[C@H](CO)NC(=O)[C@@H](Cc1c[nH]c2ccccc12)NC(=O)[C@@H](CC(=O)O)NC(=O)CNC(=O)[C@@H](CCN)NC(=O)[C@H](N)C(C)C)C(C)C)C(=O)N[C@@H](C)C(=O)O	> 64	> 64	0	> 170
CC[C@H](C)[C@@H](NC(=O)[C@@H](NC(=O)[C@H](CCC(=O)O)NC(=O)[C@H](Cc1ccccc1)NC(=O)[C@@H](CCN)NC(=O)[C@H](CCN)NC(=O)[C@H](CO)NC(=O)[C@@H](Cc1c[nH]c2ccccc12)NC(=O)[C@@H](CO)NC(=O)CNC(=O)[C@@H](CCN)NC(=O)[C@H](NC(=O)[C@@H](N)CCN)C(C)C)C(C)C)C(=O)N[C@@H](C)C(=O)O	64 (≈ 42.8 µM)	64 (≈ 42.8 µM)	10	> 70
CC[C@H](C)[C@@H](NC(=O)[C@@H](NC(=O)[C@H](CCC(=O)O)NC(=O)[C@H](Cc1ccccc1)NC(=O)[C@@H](CCN)NC(=O)[C@H](CN)NC(=O)[C@H](CO)NC(=O)[C@@H](Cc1c[nH]c2ccccc12)NC(=O)[C@@H](CO)NC(=O)CNC(=O)[C@@H](CCN)NC(=O)[C@H](N)C(C)C)C(C)C)C(=O)N[C@@H](C)C(=O)O	64 (≈ 46.4 µM)	32 (≈ 23.2 µM)	1.5	> 170
CC[C@H](C)[C@@H](NC(=O)[C@@H](NC(=O)[C@H](CCC(=O)O)NC(=O)[C@H](Cc1ccccc1)NC(=O)[C@@H](CCN)NC(=O)[C@H](CCN)NC(=O)[C@H](C)NC(=O)[C@@H](Cc1c[nH]c2ccccc12)NC(=O)[C@@H](CO)NC(=O)CNC(=O)[C@@H](CCN)NC(=O)[C@H](N)C(C)C)C(C)C)C(=O)N[C@@H](C)C(=O)O	> 64	> 64	0	> 170
CC[C@H](C)[C@@H](NC(=O)[C@@H](NC(=O)[C@H](CCC(=O)O)NC(=O)[C@H](Cc1c[nH]c2ccccc12)NC(=O)[C@@H](CCN)NC(=O)[C@H](CCN)NC(=O)[C@H](CO)NC(=O)[C@@H](Cc1c[nH]c2ccccc12)NC(=O)[C@@H](CO)NC(=O)CNC(=O)[C@@H](CCN)NC(=O)[C@H](N)C(C)C)C(C)C)C(=O)N[C@@H](C)C(=O)O	16 (≈ 11.2 µM)	8 (≈ 5.58 µM)	43.7	> 170
CC[C@H](C)[C@@H](NC(=O)[C@@H](NC(=O)[C@H](CCC(=O)O)NC(=O)[C@H](Cc1ccccc1)NC(=O)[C@@H](CCN)NC(=O)[C@H](CCN)NC(=O)[C@H](CO)NC(=O)[C@@H](Cc1c[nH]c2ccccc12)NC(=O)[C@@H](CO)NC(=O)CNC(=O)[C@@H](CN)NC(=O)[C@H](N)C(C)C)C(C)C)C(=O)N[C@@H](C)C(=O)O	32 (≈ 23.2 µM)	32 (≈ 23.2 µM)	6.3	125 (≈ 90.5 µM)
CC[C@H](C)[C@@H](NC(=O)[C@@H](NC(=O)[C@H](CCC(=O)O)NC(=O)[C@H](Cc1ccccc1)NC(=O)[C@@H](CCN)NC(=O)[C@H](CCN)NC(=O)[C@H](CO)NC(=O)[C@@H](Cc1c[nH]c2ccccc12)NC(=O)[C@@H](C)NC(=O)CNC(=O)[C@@H](CCN)NC(=O)[C@H](N)C(C)C)C(C)C)C(=O)N[C@@H](C)C(=O)O	> 64	64 (≈ 46.4 µM)	0	> 170
CC[C@H](C)[C@@H](NC(=O)[C@@H](NC(=O)[C@H](CCC(=O)O)NC(=O)[C@H](Cc1ccccc1)NC(=O)[C@@H](CCN)NC(=O)[C@H](CCN)NC(=O)[C@H](CO)NC(=O)[C@@H](Cc1c[nH]c2ccccc12)NC(=O)[C@@H](CO)NC(=O)[C@H](CCN)NC(=O)[C@@H](CCN)NC(=O)[C@H](N)C(C)C)C(C)C)C(=O)N[C@@H](C)C(=O)O	32 (≈ 22.3 µM)	64 (≈ 44.5 µM)	0.3	> 170
CC[C@H](C)[C@@H](NC(=O)[C@@H](NC(=O)[C@H](CCC(=O)O)NC(=O)[C@H](Cc1ccccc1)NC(=O)[C@@H](CCN)NC(=O)[C@H](CCN)NC(=O)[C@H](CO)NC(=O)[C@@H](Cc1c[nH]c2ccccc12)NC(=O)[C@@H](CO)NC(=O)[C@H](C)NC(=O)[C@@H](CCN)NC(=O)[C@H](N)C(C)C)C(C)C)C(=O)N[C@@H](C)C(=O)O	> 64	64 (≈ 45.4 µM)	0	> 170
CC[C@H](C)[C@@H](NC(=O)[C@@H](NC(=O)[C@H](CCC(=O)O)NC(=O)[C@H](Cc1ccccc1)NC(=O)[C@@H](CCN)NC(=O)[C@H](CCN)NC(=O)[C@H](CO)NC(=O)[C@@H](C)NC(=O)[C@@H](CO)NC(=O)CNC(=O)[C@@H](CCN)NC(=O)[C@H](NC(=O)[C@H](C)N)C(C)C)C(C)C)C(=O)N[C@@H](C)C(=O)O	> 64	> 64	0	> 170
CC[C@H](C)[C@@H](NC(=O)[C@@H](NC(=O)[C@H](CCC(=O)O)NC(=O)[C@H](Cc1ccccc1)NC(=O)[C@@H](CCN)NC(=O)[C@H](CCN)NC(=O)[C@H](CO)NC(=O)[C@@H](Cc1c[nH]c2ccccc12)NC(=O)[C@@H](CO)NC(=O)CNC(=O)[C@@H](CCN)NC(=O)[C@H](NC(=O)C(C)(C)N)C(C)C)C(C)C)C(=O)N[C@@H](C)C(=O)O	8 (≈ 5.41 µM)	8 (≈ 5.41 µM)	8.5	83 (≈ 56.1 µM)
CC[C@H](C)[C@@H](NC(=O)[C@@H](NC(=O)[C@H](CCC(=O)O)NC(=O)[C@H](Cc1ccccc1)NC(=O)[C@@H](CCN)NC(=O)[C@H](CCN)NC(=O)[C@H](CO)NC(=O)[C@@H](Cc1c[nH]c2ccccc12)NC(=O)[C@@H](CO)NC(=O)CNC(=O)[C@@H](CCN)NC(=O)[C@H](NC(=O)CN)C(C)C)C(C)C)C(=O)N[C@@H](C)C(=O)O	32 (≈ 22 µM)	32 (≈ 22 µM)	0	> 70
CC[C@H](C)[C@@H](NC(=O)[C@H](C)NC(=O)[C@H](CCC(=O)O)NC(=O)[C@H](Cc1ccccc1)NC(=O)[C@@H](CCN)NC(=O)[C@H](CCN)NC(=O)[C@H](CO)NC(=O)[C@@H](Cc1c[nH]c2ccccc12)NC(=O)[C@@H](CO)NC(=O)CNC(=O)[C@@H](CCN)NC(=O)[C@H](NC(=O)[C@H](C)N)C(C)C)C(=O)N[C@@H](C)C(=O)O	32 (≈ 22.3 µM)	32 (≈ 22.3 µM)	5.5	51 (≈ 35.5 µM)
CC[C@H](C)[C@@H](NC(=O)[C@@H](NC(=O)[C@H](CCC(=O)O)NC(=O)[C@H](Cc1ccccc1)NC(=O)[C@@H](CCN)NC(=O)[C@H](CCN)NC(=O)[C@H](CO)NC(=O)[C@@H](Cc1c[nH]c2ccccc12)NC(=O)[C@@H](CO)NC(=O)CNC(=O)[C@@H](CCN)NC(=O)[C@H](NC(=O)[C@@H](N)CC(=O)O)C(C)C)C(C)C)C(=O)N[C@@H](C)C(=O)O	> 64	> 64	0	> 170
CC[C@H](C)[C@@H](NC(=O)[C@@H](NC(=O)[C@H](CCC(=O)O)NC(=O)[C@H](Cc1ccccc1)NC(=O)[C@@H](CCN)NC(=O)[C@H](CCN)NC(=O)[C@H](CO)NC(=O)[C@@H](Cc1c[nH]c2ccccc12)NC(=O)[C@@H](CO)NC(=O)CNC(=O)[C@@H](CCN)NC(=O)[C@@H](C)NC(=O)[C@H](C)N)C(C)C)C(=O)N[C@@H](C)C(=O)O	64 (≈ 44.5 µM)	32 (≈ 22.3 µM)	1.3	> 170
